Laboratory results: patent US20220133761A1, “NEUTROPHIL APOPTOSIS INDUCED BY NANOPARTICLES FOR TREATING INFLAMMATORY DISEASES” (WASHINGTON STATE UNIVERSITY, priority 2020, published 2022)

Legend:
[1] = Serum stability of nanoparticles in PBS with 20% FBS; format: physicochemical; details: pH 7.4, incubation for 4 days
Description: Particle size and polydispersity indexes (PDI) were measured using Malvern Zetasizer Nano90 (Westborough, Mass.). The samples were incubated in PBS at pH 7.4 for 2 h, and the measurements were conducted in a 1.0 mL quartz cuvette using a diode laser of 633 nm at 25° C. and a scattering angle was fixed at 90°. To evaluate their serum stability, nanoparticles were dispersed in 20% FBS PBS solution (pH 7.4) at a final concentration of 1 mg/mL. Nanoparticle sizes were measured at the predefined time points. Transmission electron microscopy (TEM) of nanoparticles was also performed using a FEI Technai G2 20 Twin TEM (Hillsboro, Oreg.).

[2] = In vitro drug release profile (dialysis, 37 C); format: physicochemical
Description: Release profiles of DOX from NPs were studied using dialysis method at 37° C.(33) Briefly, 3 mg of NPs was dispersed in 3 mL (Ve) PBS at different pH, and then was placed in a dialysis bag (MWCO 3500 Da). The dialysis bag was immersed in 47 mL PBS (pH 7.4, 6.5 or 5.0) in a beaker. The beaker was then placed in a 37° C. water bath and stirred at 110 rpm. The samples were drawn at desired time intervals and the drug concentration was measured using UV-Vis absorption. The experiments were carried out in triplicate at each pH value. The accumulative drug release percent (Er) was calculated based on equation (1).
where, mdrug represents the amount of DOX in NPs, V0 was the whole volume of release media (V0=50 mL), Ci represents the concentration of DOX in the ith sample.

[3] = test system: differentiated HL-60 cells (neutrophil-like cells); test: In vitro cytotoxicity, CCK-8 assay; format: cell-based, human; details: 24 h, different concentrations of DOX
Description: Cytotoxic effects of BSA NPs on HL-60 cells were measured by CCK-8 assay. HL-60 cells were plated in 96-well plates (Costar, Corning, N.Y.) at 5,000-10,000 cells/well. After incubation for 24 h, the culture medium was removed and a complete medium with various concentrations of free DOX, BSA and DOX-conjugated BSA NPs was used to incubate cells for 24 h, respectively. 10 μL of the solution cell proliferation reagent (Promega, Madison, Wis.) per well was added. Then, the cell viability was measured by a Synergy Neo fluorescence plate reader (BioTek, Winooski, Vt.) at 490 nm.

[4] = test system: differentiated HL60 cells; test: Uptake of DOX-hyd-BSA NPs by differentiated HL60 cells; format: cell-based, human; details: 10^6 cells/mL, 2 h at different DOX concentrations; time course at 30 μg/mL DOX
Description: FIG. 5C and FIG. 5D show resultant uptake data of the present application, wherein DOX-hyd-BSA NPs by differentiated HL60 cells were evaluated in vitro.

[5] = test system: differentiated HL-60 cells; test: Apoptosis analysis, Annexin V-FITC / 7AAD staining (flow cytometry, CLSM); format: cell-based, human
Description: To investigate the apoptosis of neutrophils induced by DOX, Annexin V-FITC and 7AAD were used to double stain differentiated HL-60 cells. […] The cells were re-suspended in a binding buffer for staining of Annexin V-FITC and 7AAD (emission at 650 nm) according to the manufacturer's protocol (Invitrogen). Stained cells were analyzed using a flow cytometer and imaged by a Nikon A1R^+ confocal laser scanning microscope.

LPS-challenged mice [6] = test: Survival study in sepsis mouse model (i.p. LPS 50 mg/kg); format: in vivo; details: 72 h, 0.2 mg/kg DOX i.v. 4 h after i.p. LPS 50 mg/kg
Description: Adult CD-1 mice were i.p. injected with LPS (50 mg/kg) in the mouse sepsis model. 4 hours later, the LPS-challenged mice were grouped randomly (10 mice per group) and treated (i.v.) with PBS, free DOX (0.2 mg/kg), and prodrug DOX-hyd-BSA NPs (equal to 0.2 mg/kg of free DOX). The animals were monitored every 6 h in the first 12 h followed by monitoring mice every 12 h in 72 h.

cerebral I/R mouse model = test: Middle cerebral artery occlusion (MCAO) cerebral I/R mouse model; format: in vivo
Description: CD1 mice were used. Mice were anesthetized using 100 mg/kg of ketamine and 5 mg/kg of xylazine. They were positioned in the supine position on a heating pad. A carotid artery (CA) was exposed via the midline neck incision. An external carotid artery (ECA) was separated and occulated with two knots. Next, the internal carotid artery (ICA) was isolated, and the CA and ICA were clipped. A small hole was cut in the ECA above the second knot. A 6-0 medium MCAO suture was then introduced into ICA. Mice were kept for 60 min after occlusion in a heated cage, and the suture was withdrawn for reperfusion. Finally, the skin was closed and the mice were returned to the individual cage.
The damaged brain tissues were collected 24 h after MCAO and homogenized in PBS with 5% hexadecyltrimethylammonium bromide (HTAB). The homogenate was sonicated, and centrifuged at 13,000 rpm for 10 min. Next, 10 μL supernatant was loaded into each well of a 96-well plate. A solution of o-Dianisidine dihydrochloride with 0.0005% hydrogen peroxide in potassium phosphate buffer was added to the samples. Absorbance was measured at 450 nm. MPO activity is expressed as change in absorbance per minute per gram of tissue.
The damaged brain tissues of mice were collected 24 h after MCAO surgery and homogenized in PBS buffer. The level of cytokines (TNF-α, IL-1β, IL-6) was quantified using commercial ELISA assay as aforementioned.
Videos were taken 24 h after MCAO surgery and neurological deficit scores were given by two people. The scores are divided into five grades for neurological scores of mice after cerebral ischemia.

human neutrophils = test: Uptake of nanoparticles by human neutrophils in vitro (flow cytometry); format: cell-based; details: 30 ug/ml, 2 h
Description: FIG. 15 show novel data of uptake of DOX-hdy-BSA NPs by human neutrophils. Human neutrophils were incubated with DOX-hyd-BSA NPs (the concentration at 30 ug/ml) for 2 h, and then the cells were washed, and they were analyzed by flowcytometry.
It is also to be noted that the methods herein also pertain to making human albumin nanoparticles similar to BSA NPs. […] Human neutrophils were incubated with DOX-hyd-BSA NPs (the concentration at 30 ug/ml) for 2 h, and then the cells were washed and analyzed by flowcytometry.

LPS-challenged mice [7] = test: Second LPS hit (i.t.) in mice that survived sepsis after NP treatment
Description: The mice were challenged with LPS (i.p., 50 mg/kg) or PBS (control). 4 h later, the LPS-challenged mice were i.v. treated with DOX-hyd-BSA NPs at 0.2 mg/kg of DOX. The control mice were not treated with LPS and NPs. 72 h later, all survival and control (healthy) mice were challenged with LPS (i.t., 10 mg/kg).
The combinatory experiments were designed in which a mouse was i.p. challenged with LPS to cause sepsis, and then a mouse was treated with DOX-loaded NPs 4 h after the LPS challenge. At 72 h after the LPS challenge, the survival mouse was i.t. administered to examine whether neutrophils can transmigrate and respond to the second hit of LPS (see FIG. 10M of experimental protocol diagram).

[8] = 0.2 mg/kg DOX i.v. 1 h after reperfusion, 22 h post-injection, vs free DOX and PBS

## DOX-hyd-BSA NPs
[1]
  serum stability (aggregation, diameter change): no aggregation (diameter change) was observed
[2]; pH 5.0, first 10 h
  cumulative DOX release: 80%
[2]; pH 5, in 30 h
  cumulative DOX release: completely released DOX
[2]; pH 6.5, first 10 h
  cumulative DOX release: 60%
[3]
  cytotoxicity (cell viability): cytotoxicity was similar for both free DOX and DOX-hyd-BSA NPs
[4]
  DOX uptake by cells: taken up efficiently
[5]; 24 h, DOX 3 μg/mL
  apoptotic cells by flow cytometry: 89%
[5]; 24 h treatment
  Annexin V-FITC / 7AAD staining by confocal microscopy: contained staining of Annexin-V-FITC, and less staining of 7AAD
LPS-challenged mice [6]
  mouse survival: 70%
Cerebral I/R mouse model; [8]
  cytokines in the brain (TNF-α, IL-1β, IL-6): significantly reduced
  neutrophil numbers in the brain (MPO activity): significantly reduced
Cerebral I/R mouse model; 0.2 mg/kg of DOX, 24 h after MCAO
  neurological deficits (behavior scores): enhanced mouse neurological recovery and improved mouse movements
Human neutrophils
  uptake by human neutrophils: can be efficiently taken up
LPS-challenged mice [7]; 0.2 mg (DOX)/kg dose
  body weight of mice that survived sepsis: returned to their initial weight
LPS-challenged mice [7]; i.t. LPS 10 mg/kg at 72 h, BALF at 84 h, vs healthy mice
  response of neutrophils to second LPS challenge (BALF neutrophils, cytokines): can immediately respond to the challenge of LPS like what the healthy mice did
